Results: patent US20220106301A1, “ACETAMIDO-PHENYLBENZAMIDE DERIVATIVES AND METHODS OF USING THE SAME” (Athenex, Inc., priority 2020, published 2022)

What follows are molecules tested against CYP3A4 (Homo sapiens, UniProt P08684) (assay: Determination of CYP3A4 inhibitory activity (human liver microsome, Luciferin-IPA)). Conditions: CYP3A4 IC50 (nM), 37° C. 11 minutes.
Method: The standard final Compound concentrations were 37, 111, 333, 1000, and 3000 nM. 12.5 μL of the Compound dilutions were transferred to a white 96-well plate. […] 25 μL of the buffer was added to each well. The plates were incubated at 37° C. for 11 minutes. 50 μL of luciferin detection reagent (Promega V9002) was added and the plates were incubated at room temperature for 5 minutes. The plate was read with a luminometer.
The dose-response curve and IC50 were obtained by fitting data to nonlinear regression model using GraphPad Prism software (v6.0).

Sequence of CYP3A4 (P08684 whole entry): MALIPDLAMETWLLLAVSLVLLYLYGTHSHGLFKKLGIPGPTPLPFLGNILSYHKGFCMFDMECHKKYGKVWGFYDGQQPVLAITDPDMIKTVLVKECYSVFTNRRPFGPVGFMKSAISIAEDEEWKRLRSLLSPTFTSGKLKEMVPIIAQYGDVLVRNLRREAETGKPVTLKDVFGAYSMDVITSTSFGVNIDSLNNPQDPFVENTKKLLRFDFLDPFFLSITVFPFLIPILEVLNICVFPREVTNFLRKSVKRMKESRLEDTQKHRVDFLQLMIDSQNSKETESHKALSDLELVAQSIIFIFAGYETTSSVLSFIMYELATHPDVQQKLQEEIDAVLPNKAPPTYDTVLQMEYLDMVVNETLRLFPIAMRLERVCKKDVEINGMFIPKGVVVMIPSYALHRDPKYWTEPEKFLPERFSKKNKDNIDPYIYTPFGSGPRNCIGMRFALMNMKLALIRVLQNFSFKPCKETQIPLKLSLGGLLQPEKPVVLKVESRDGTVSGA

First: COc1cc(NC(=O)c2cc(=O)c3ccccc3o2)c(C(=O)Nc2ccc(CCN3CCc4ccncc4C3)cc2)cc1OC [Compound 78]
Second: COc1cc2c(cc1OC)CN(CCc1ccc(NC(=O)c3ccc(C(=O)O)cc3NC(=O)c3cc(=O)c4ccccc4o3)cc1)CC2 [Compound 261]
The IC50 of the first is lower: 500 to 1000 nM for the first, over 1000 nM for the second. The first is the more potent here.

First: COc1cc2c(cc1OC)CN(CCc1ccc(NC(=O)c3ccc(C(=O)OCc4cccnc4)cc3NC(=O)c3cc(=O)c4ccccc4o3)cc1)CC2 [Compound 80]
Second: CN(CCc1ccc(NC(=O)c2ccc(C(=O)OCc3cccnc3)cc2NC(=O)c2cc(=O)c3ccccc3o2)cc1)Cc1ccc2c(cnn2C)c1 [Compound 84]
The IC50 of the first is lower: 500 to 1000 nM for the first, over 1000 nM for the second. The first is the more potent here.

First: COc1ccc(CN(CCc2ccc(NC(=O)c3ccc(C(=O)O)cc3NC(=O)c3cc(=O)c4ccccc4o3)cc2)Cc2ccc(OC)c(OC)c2)cc1OC [Compound 264]
Second: COc1ccc(CN(CCc2ccc(NC(=O)c3cc(OC)c(OC)cc3NC(=O)c3cc(=O)c4ccccc4o3)cc2)Cc2cccnc2)cc1OC [Compound 29]
The IC50 of the first is higher: over 1000 nM for the first, 100 to 250 nM for the second. The second is the more potent here.

`CCN(CCc1ccc(NC(=O)c2cc(OC)c(OC)cc2NC(=O)c2cc(=O)c3ccccc3o2)cc1)Cc1ccc(C)c2ncccc12` [Compound 144] and `CCN(CCc1ccc(NC(=O)c2cc(OC)c(OC)cc2NC(=O)c2cc(=O)c3ccccc3o2)cc1)Cc1ccc2c(c1)ncn2C` [Compound 109] cannot be ordered by IC50: over 1000 nM for the first, over 1000 nM for the second.

First: CCn1ncc2cc(CN(CCc3ccc(NC(=O)c4cc(OC)c(OC)cc4NC(=O)c4cc(=O)c5ccccc5o4)cc3)Cc3cccnc3)ccc21 [Compound 248]
Second: COc1cc(NC(=O)c2cc(=O)c3ccccc3o2)c(C(=O)Nc2ccc(CCN(Cc3cccnc3)Cc3ccc4cnn(C)c4c3)cc2)cc1OC [Compound 32]
The IC50 of the first is higher: 250 to 500 nM for the first, under 100 nM for the second.

First: CCN(CCc1ccc(NC(=O)c2cc(OC)c(OC)cc2NC(=O)c2cc(=O)c3ccccc3o2)cc1)Cc1cccc(OC[C@@H]2CO[C@@](Cn3ccnc3)(c3ccc(Cl)cc3Cl)O2)c1 [Compound 127]
Second: COc1ccc(CN(CCc2ccc(NC(=O)c3cc(OC)c(OC)cc3NC(=O)c3cc(=O)c4ccccc4o3)cc2)Cc2cccc(-n3ccnc3)c2)cc1OC [Compound 27]
The IC50 of the first is lower: under 100 nM for the first, 100 to 250 nM for the second. The first is the more potent here.

`COc1cncc(CN(Cc2ccc(CNC(=O)c3cc(OC)c(OC)cc3NC(=O)c3cc(=O)c4ccccc4o3)cc2)Cc2ccc3c(cnn3C)c2)c1` [Compound 235] and `CCOc1cncc(CN(CCc2ccc(NC(=O)c3cc(OC)c(OC)cc3NC(=O)c3cc(=O)c4ccccc4o3)cc2)Cc2ccc3c(cnn3C)c2)c1` [Compound 55] fall in the same range of IC50: 100 to 250 nM for the first, 100 to 250 nM for the second.

`COc1cc(NC(=O)c2cc(=O)c3cc(C)ccc3o2)c(C(=O)Nc2ccc(CCN(Cc3cccnc3)Cc3ccc4c(c3)c(C)nn4C)cc2)cc1OC` [Compound 66] and `COc1cc(NC(=O)c2cc(=O)c3ccccc3o2)c(C(=O)Nc2ccc(CCN(Cc3cncc(O)c3)Cc3ccc4c(c3)c(C)nn4C)cc2)cc1OC` [Compound 247] fall in the same range of IC50: 100 to 250 nM for the first, 100 to 250 nM for the second.

`COc1cc(NC(=O)c2cc(=O)c3cc(C)ccc3o2)c(C(=O)Nc2ccc(CCN(Cc3ccc4c(cnn4C)c3)Cc3ccc4c(c3)nnn4C)cc2)cc1OC` [Compound 251] and `COc1cc(NC(=O)c2cc(=O)c3ccccc3o2)c(C(=O)Nc2ccc(CCN(Cc3ccc4c(cnn4C)c3)Cc3ccc4c(c3)c(C)nn4C)cc2)cc1OC` [Compound 181] cannot be ordered by IC50: over 1000 nM for the first, over 1000 nM for the second.

First: COc1cc(NC(=O)c2cc(=O)c3ccccc3o2)c(C(=O)Nc2ccc(CCN(Cc3cccnc3)Cc3cccc(-n4ccnc4)c3)cc2)cc1OC [Compound 216]
Second: COc1cc(NC(=O)c2cc(=O)c3ccccc3o2)c(C(=O)Nc2ccc(CCN(Cc3cccc(-n4ccnc4)c3)Cc3ccc4c(cnn4C)c3)cc2)cc1OC [Compound 16]
The IC50 of the first is lower: 100 to 250 nM for the first, 250 to 500 nM for the second.

First: COc1cc(NC(=O)c2cc(=O)c3ccccc3o2)c(C(=O)Nc2ccc(CCN(Cc3ccc4cnn(C)c4c3)Cc3ncc[nH]3)cc2)cc1OC [Compound 36]
Second: CCN(CCc1ccc(NC(=O)c2cc(OC)c(OC)cc2NC(=O)c2cc(=O)c3ccccc3o2)cc1)Cc1ccc2cnn(C)c2c1 [Compound 164]
The IC50 of the first is lower: 100 to 250 nM for the first, over 1000 nM for the second. The first is the more potent here.

First: COc1cc(NC(=O)c2cc(=O)c3ccccc3o2)c(C(=O)NCc2ccc(CN(Cc3cccc(-n4ccnc4)c3)Cc3ccc4c(cnn4C)c3)cc2)cc1OC [Compound 233]
Second: COc1cc(NC(=O)c2cc(=O)c3ccccc3o2)c(C(=O)NCc2ccc(CN(Cc3ccc(-c4cncs4)cc3)Cc3ccc4c(cnn4C)c3)cc2)cc1OC [Compound 238]
The IC50 of the first is lower: 100 to 250 nM for the first, over 1000 nM for the second. The first is the more potent here.

First: COC(=O)c1ccc(C(=O)Nc2ccc(CCN(C)Cc3ccc4c(cnn4C)c3)cc2)c(NC(=O)c2cc(=O)c3ccccc3o2)c1 [Compound 270]
Second: CN(CCc1ccc(NC(=O)c2ccc(C(=O)OCc3cncs3)cc2NC(=O)c2cc(=O)c3ccccc3o2)cc1)Cc1ccc2c(cnn2C)c1 [Compound 85]
The IC50 of the first is higher: over 1000 nM for the first, 250 to 500 nM for the second. The second is the more potent here.

First: COc1cc(NC(=O)c2cc(=O)c3ccccc3o2)c(C(=O)Nc2ccc(CCN(Cc3ccc4c(cnn4C)c3)Cc3cncn3C)cc2)cc1OC [Compound 21]
Second: COc1cc(NC(=O)c2cc(=O)c3ccccc3o2)c(C(=O)Nc2ccc(CCN(Cc3cncc(F)c3)Cc3ccc4c(cnn4C)c3)cc2)cc1OC [Compound 46]
The IC50 of the first is lower: under 100 nM for the first, 250 to 500 nM for the second. The first is the more potent here.

`COc1cc(NC(=O)C2CC(=O)c3ccccc3O2)c(C(=O)Nc2ccc(CCN(C)Cc3ccc(-c4cccnc4)cc3)cc2)cc1OC` (stereo not drawn) [Compound 88] and `COc1cc(NC(=O)c2cc(=O)c3ccccc3o2)c(C(=O)Nc2ccc(CCN(C)Cc3cccc(-c4cccnc4)c3)cc2)cc1OC` [Compound 7] fall in the same range of IC50: 500 to 1000 nM for the first, 500 to 1000 nM for the second.

First: COc1cncc(CN(CCc2ccc(NC(=O)c3cc(OC)c(OC)cc3NC(=O)c3cc(=O)c4ccc(C)cc4o3)cc2)Cc2ccc3c(cnn3C)c2)c1 [Compound 222]
Second: COc1cncc(CN(CCc2ccc(NC(=O)c3cc(OC)c(OC)cc3NC(=O)c3cc(=O)c4cc(C)ccc4o3)cc2)Cc2ccc3c(cnn3C)c2)c1 [Compound 52]
The IC50 of the first is lower: 100 to 250 nM for the first, 250 to 500 nM for the second.

First: COc1cc(NC(=O)c2cc(=O)c3ccccc3o2)c(C(=O)Nc2ccc(CCN(Cc3cncc(OCCN)c3)Cc3ccc4c(cnn4C)c3)cc2)cc1OC [Compound 246]
Second: COc1cncc(CN(CCc2ccc(NC(=O)c3cc(OC)c(OC)cc3NC(=O)c3cc(=O)c4ccccc4o3)cc2)Cc2ccc3c(c2)nnn3C)c1 [Compound 220]
The IC50 of the first is higher: over 1000 nM for the first, 100 to 250 nM for the second. The second is the more potent here.

`COc1ccc(CN(CCc2ccc(NC(=O)c3cc(OC)c(OC)cc3NC(=O)c3cc(=O)c4ccccc4o3)cc2)Cc2ccc(-n3ccnc3)cc2)cc1OC` [Compound 28] and `COc1cc(NC(=O)c2cc(=O)c3ccccc3o2)c(C(=O)Nc2ccc(CCN(Cc3ccc(-n4ccnc4)cc3)Cc3ccc4cnn(C)c4c3)cc2)cc1OC` [Compound 186] fall in the same range of IC50: 100 to 250 nM for the first, 100 to 250 nM for the second.

First: COc1cc(NC(=O)c2cc(=O)c3ccccc3o2)c(C(=O)Nc2ccc(CCN(C)Cc3cccc(-n4ccnc4)c3)cc2)cc1OC [Compound 3]
Second: COc1cc(NC(=O)c2cc(=O)c3ccccc3o2)c(C(=O)Nc2ccc(CCN(C)C(=O)c3cccc(-n4ccnc4)c3)cc2)cc1OC [Compound 122]
The IC50 of the first is lower: 100 to 250 nM for the first, 500 to 1000 nM for the second. The first is the more potent here.

`COc1cc(NC(=O)c2cc(=O)c3ccccc3o2)c(C(=O)Nc2ccc(CCN(Cc3ccc(-n4ccnc4C)cc3)Cc3ccc4c(cnn4C)c3)cc2)cc1OC` [Compound 241] and `COc1cc(NC(=O)c2cc(=O)c3ccccc3o2)c(C(=O)Nc2ccc(CCN(Cc3ccc(-c4ccncc4)cc3)Cc3ccc4c(cnn4C)c3)cc2)cc1OC` [Compound 188] cannot be ordered by IC50: over 1000 nM for the first, over 1000 nM for the second.

Compared with `COC(=O)c1ccc(C(=O)Nc2ccc(CCN(Cc3cncc(OC)c3)Cc3cncc(OC)c3)cc2)c(NC(=O)c2cc(=O)c3ccccc3o2)c1` [Compound 258], `COc1cncc(CN(CCc2ccc(NC(=O)c3cc(OC)c(OC)cc3NC(=O)c3cc(=O)c4ccccc4o3)cc2)Cc2ccc3c(c2)n(C)c(=O)n3C)c1` [Compound 69] is higher in IC50: under 100 nM for the first, 100 to 250 nM for the second.

`COc1cc(NC(=O)c2cc(=O)c3ccccc3o2)c(C(=O)Nc2ccc(CCNCc3ccc4c(cnn4C)c3)cc2)cc1OC` [Compound 139] and `CCOc1cc(C(=O)Nc2ccc(CCN(C)Cc3ccc4c(cnn4C)c3)cc2)c(NC(=O)c2cc(=O)c3ccccc3o2)cc1OC` [Compound 111] cannot be ordered by IC50: over 1000 nM for the first, over 1000 nM for the second.

`COc1cc(NC(=O)c2cc(=O)c3cc(C)ccc3o2)c(C(=O)Nc2ccc(CCN(Cc3cncc(-c4ccccc4)c3)Cc3ccc4c(cnn4C)c3)cc2)cc1OC` [Compound 255] and `COc1cc(NC(=O)c2cc(=O)c3ccccc3o2)c(C(=O)Nc2ccc(CCN(Cc3ccc4c(cnn4C)c3)Cc3ccc[n+]([O-])c3)cc2)cc1OC` [Compound 225] cannot be ordered by IC50: over 1000 nM for the first, over 1000 nM for the second.

Compared with `CCn1c2ccccc2c2cc(CN(CCc3ccc(NC(=O)c4cc(OC)c(OC)cc4NC(=O)c4cc(=O)c5ccccc5o4)cc3)Cc3cccc(-n4ccnc4)c3)ccc21` [Compound 212], `COc1cc(NC(=O)c2cc(=O)c3ccccc3o2)c(C(=O)Nc2ccc(CCNCc3cccc(-n4ccnc4)c3)cc2)cc1OC` [Compound 125] is lower in IC50: over 1000 nM for the first, 100 to 250 nM for the second. The second is the more potent here.

Compared with `COCCOc1cncc(CN(CCc2ccc(NC(=O)c3cc(OC)c(OC)cc3NC(=O)c3cc(=O)c4cc(C)ccc4o3)cc2)Cc2ccc3c(c2)c(C)nn3C)c1` [Compound 68], `COc1cc(NC(=O)c2cnc3ccccc3n2)c(C(=O)Nc2ccc(CCN(Cc3cncc(C(C)C)c3)Cc3ccc4c(cnn4C)c3)cc2)cc1OC` [Compound 75] is higher in IC50: 100 to 250 nM for the first, 250 to 500 nM for the second.

First: COc1cc(NC(=O)c2cc(=O)c3ccccc3o2)c(C(=O)Nc2ccc(CCN(Cc3cccnc3)Cc3cnc(-c4ccccc4F)nc3)cc2)cc1OC [Compound 229]
Second: COc1cc(NC(=O)c2cc(=O)c3ccccc3o2)c(C(=O)Nc2ccc(CCN(Cc3cncn3C)Cc3cncn3C)cc2)cc1OC [Compound 18]
The IC50 of the first is higher: 250 to 500 nM for the first, under 100 nM for the second.

First: Cn1ncc2cc(CN(CCc3ccc(NC(=O)c4ccc(C(=O)OCc5cccnc5)cc4NC(=O)c4cc(=O)c5ccccc5o4)cc3)Cc3ccc4c(cnn4C)c3)ccc21 [Compound 268]
Second: CCn1ncc2cc(CN(CCc3ccc(NC(=O)c4cc(OC)c(OC)cc4NC(=O)C4CC(=O)c5ccccc5O4)cc3)Cc3cccc(-n4ccnc4)c3)ccc21 (stereo not drawn) [Compound 205]
The IC50 of the first is higher: over 1000 nM for the first, 500 to 1000 nM for the second. The second is the more potent here.
